From PMC11189555, “Aryl amino acetamides prevent Plasmodium falciparum ring development via targeting the lipid-transfer protein PfSTART1” (Nature Communications, 2024)
“And” between values parts separate entries of the source, which are not always exact repeats. Equal entries are not always repeated.

What was measured:
[1] = test system: P. berghei sporozoites invading HC-04 human liver cells; assay: In vitro liver invasion assay; type: cell-based, Plasmodium berghei; details: Replicate 1 and 2
Experimental: P. berghei ANKA constitutively expressing mCherry[82] was used for the in vitro liver stage invasion assay. Animals used for the generation of the sporozoites were 4- to 5-week-old male Swiss Webster mice and were purchased from the Monash Animal Services (Melbourne, Victoria, Australia) and housed at 22 to 25 °C on a 12 h light/dark cycle with 40-70% humidity at the School of Biosciences, The University of Melbourne, Australia. All animal experiments were in accordance with the Prevention of Cruelty to Animals Act 1986, the Prevention of Cruelty to Animals Regulations 2008, and National Health and Medical Research Council (2013) Australian code for the care and use of animals for scientific purposes. These experiments were reviewed and permitted by the Melbourne University Animal Ethics Committee (2015123).
Infections of naïve Swiss mice were carried out by intraperitoneal (IP) inoculation obtained from a donor mouse between the first and fourth passages from cryopreserved stock. Parasitemia was monitored by Giemsa smear and exflagellation quantified 3 days post-infection. A. stephensi mosquitoes were allowed to feed on anaesthetised mice once the exflagellation rate was assessed between about 12 to 15 exflagellation events per 1 × 10^4 RBCs. Salivary glands of infected mosquitoes (days 17 to 24 post-infection) were isolated by dissection and parasites placed into RPMI-1640 media.
This was performed essentially as described[83] with the minor variations outlined in the Supplementary Information. […]
In vitro liver invasion assays. This was performed essentially as described16 with the following variations. In vitro human liver HCO4 cells (ATCC) were seeded at 1 × 10^5 cells/mL, grown for 24 h and then infected for 2 h with 30,000 Pb ANKA mCherry […]
expressing sporozoites. Following fixation, an IFA with anti -CSP antibody (1:500) followed by anti-mouse Alexafluor 488 (1:1 ,000; Invitrogen, Carlsbad, CA, USA) labels uninvaded parasites. Fluorescence signal was assessed using an Olympus CKX41 epifluorescence microscope. […]
Gametogenesis was then triggered by the addition of 10 μL ookinete medium (gametocyte culture medium supplemented with 100 μM xanthurenic acid and 0.27 µg/mL Cy3-labelled anti-Pfs25 antibody) to each well at room temperature. Plates were then cooled on a metal block at 4°C for four min to ensure even cooling and then stabilised for a further 4 min at 28°C. At 20 min post-induction, male gametogenesis was recorded in each well by automated brightfield microscopy using a x4 objective lens and 1.5x magnifier (x6 effective magnification). Afterward, plates were incubated in the dark at room temperature for 24 h and then female gametogenesis recorded in each well by automated fluorescence microscopy (anti-Pfs25-positive cells). All experiments were performed in quadruplicate with DMSO and cabamiquine (DDD107498)17 as negative and positive controls respectively. All data was evaluated in comparison to the positive and negative controls to calculate percentage inhibition of male and female gametocytes, and dose response analysis and IC50 calculation performed using GraphPad Prism. […]
The pellet was subjected to five

[2] = test system: processed PfSTART1 (proc1, proc2) in schizonts; assay: Processing of PfSTART1 along schizogony with egress inhibitors (Western blot densitometry); type: cell-based, Plasmodium falciparum; details: for Normalised by EXP2: START full length / Normalised by EXP2: START processed 1 / Normalised by EXP2: START processed 2 / Normalised by EXP2 and full length: START processed 1 / Normalised by EXP2 and full length: START processed 2 / Raw densitometry: START full length / Raw densitometry: START processed 1 / Raw densitometry: START processed 2: biological replicates 1-5
Experimental: Magnet-purified schizonts were harvested after a 4 h treatment with the following: DMSO (0.1%), 49c (10 nM), C1 (1.5 μM) or E64 (10 μM). Parasites were washed in ice-cold PBS + PI (centrifugation steps carried out at 4 °C at 3,000 g). Samples were resuspended in NRSB, sonicated, boiled 10 min at 80 °C and separated by electrophoresis as explained previously. The parasites used in this experiment were 3D7 transfected with p1.2-ABH(WT)-83-HA-glmS, i.e. parasites containing a recodonised version of PF3D7_0403800 within its genome. […]
(DMSO). Schizonts were saponin -lysed. (E) Synchronised 3D7 schizonts were magnet-purified, stalled at different stages of egress: 4 h with 10 nM 49c (plasmepsin X inhibitor), 1.5 µM compound 1 (C1; PKG inhibitor), 10 µM E64, or allowed to progress (DMSO). Whole cells were harvested. PEXEL-cleaved, and the two further processed forms of PfSTART1 are indicated by solid and empty arrows respectively.
(F) Densitometry of processed PfSTART1 (proc1 and proc2) was normalised to the corresponding PEXEL-cleaved PfSTART1. n=10 replicates (n=6 for the 49c treatment). Two-way ANOVA with Šídák's multiple comparisons test (compare each

[3] = schizonts treated 4 h: 49c 10 nM, C1 1.5 μM, E64 10 μM, vs DMSO and other treatments

C=C1[C@@H](C)[C@H]2[C@H](Cc3ccccc3)NC(=O)[C@]23[C@H](OC(C)=O)/C=C/[C@@](C)(O)C(=O)[C@@H](C)C/C=C/[C@H]3[C@@H]1O [cytD, cytochalasin D, reference compound]
Liver stage invasion assay: in ([1]; count of sporozoites inside cells): 2
Liver stage invasion assay: out ([1]; count of sporozoites outside cells): 118 and 305
Liver stage invasion assay: ratio ([1]; in relative to in + out): 1.667 and 0.6515

CC(C)C[C@H](NC(=O)[C@H]1O[C@@H]1C(=O)O)C(=O)NCCCCN=C(N)N [E64]
Normalised by EXP2: START full length ([2]; BLOT AMA1, '+' lane): 9.91E+01 and 2.44E+01 and 1.44E+02 and 6.49E+01 and 9.10E+02
Normalised by EXP2: START processed 1 ([2]; BLOT AMA1, '+' lane): 5.50E+01 and 7.11E+00 and 4.58E+01 and 1.53E+01 and 3.44E+02
Normalised by EXP2: START processed 2 ([2]; BLOT AMA1, '+' lane): 9.13E+01 and 1.13E+01 and 7.80E+01 and 1.03E+01 and 3.88E+02
Normalised by EXP2 and full length: START processed 1 ([2]; BLOT AMA1, '+' lane): 5.54E+01 and 2.91E+01 and 3.18E+01 and 2.36E+01 and 3.78E+01
Normalised by EXP2 and full length: START processed 2 ([2]; BLOT AMA1, '+' lane): 9.21E+01 and 4.63E+01 and 5.42E+01 and 1.59E+01 and 4.26E+01
Raw densitometry: START full length ([2]; BLOT AMA1, '+' lane): 9.54 and 2.49E+01 and 26.4 and 2.01E+01 and 2.02E+01
Raw densitometry: START processed 1 ([2]; BLOT AMA1, '+' lane): 2.78 and 7.92E+00 and 6.24 and 7.59E+00 and 1.12E+01
Raw densitometry: START processed 2 ([2]; BLOT AMA1, '+' lane): 4.42 and 1.35E+01 and 4.19 and 8.56E+00 and 1.86E+01
Normalised by EXP2: START full length ([2]; BLOT AMA1, '-' lane): 1.05E+02 and 2.53E+01 and 1.75E+02 and 7.60E+01 and 6.88E+02
Normalised by EXP2: START processed 1 ([2]; BLOT AMA1, '-' lane): 6.93E+01 and 7.41E+00 and 5.19E+01 and 1.82E+01 and 2.72E+02
Normalised by EXP2: START processed 2 ([2]; BLOT AMA1, '-' lane): 9.19E+01 and 9.39E+00 and 9.29E+01 and 7.65E+00 and 2.73E+02
Normalised by EXP2 and full length: START processed 1 ([2]; BLOT AMA1, '-' lane): 6.61E+01 and 2.93E+01 and 2.98E+01 and 2.39E+01 and 3.96E+01
Normalised by EXP2 and full length: START processed 2 ([2]; BLOT AMA1, '-' lane): 8.76E+01 and 3.72E+01 and 5.32E+01 and 1.01E+01 and 3.96E+01
Raw densitometry: START full length ([2]; BLOT AMA1, '-' lane): 8.29 and 2.80E+01 and 29.3 and 1.80E+01 and 2.42E+01
Raw densitometry: START processed 1 ([2]; BLOT AMA1, '-' lane): 2.43 and 8.33E+00 and 7.01 and 7.12E+00 and 1.60E+01
Raw densitometry: START processed 2 ([2]; BLOT AMA1, '-' lane): 3.08 and 1.49E+01 and 2.95 and 7.13E+00 and 2.12E+01
Normalised by EXP2: START full length ([2]; BLOT Rh5, '+' lane): 7.41E+01 and 1.24E+02 and 2.65E+01 and 1.82E+02 and 1.65E+02
Normalised by EXP2: START processed 1 ([2]; BLOT Rh5, '+' lane): 5.05E+01 and 4.02E+01 and 7.30E+00 and 3.75E+01 and 7.40E+01
Normalised by EXP2: START processed 2 ([2]; BLOT Rh5, '+' lane): 7.26E+01 and 3.45E+01 and 1.15E+01 and 3.53E+01 and 8.50E+01
Normalised by EXP2 and full length: START processed 1 ([2]; BLOT Rh5, '+' lane): 6.81E+01 and 3.26E+01 and 2.75E+01 and 2.05E+01 and 4.47E+01
Normalised by EXP2 and full length: START processed 2 ([2]; BLOT Rh5, '+' lane): 9.79E+01 and 2.79E+01 and 4.33E+01 and 1.93E+01 and 5.14E+01
Raw densitometry: START full length ([2]; BLOT Rh5, '+' lane): 12.9 and 1.34E+01 and 3.87E+01 and 2.57E+01 and 1.42E+01
Raw densitometry: START processed 1 ([2]; BLOT Rh5, '+' lane): 4.2 and 3.69E+00 and 7.95E+00 and 1.15E+01 and 9.67E+00
Raw densitometry: START processed 2 ([2]; BLOT Rh5, '+' lane): 3.6 and 5.80E+00 and 7.48E+00 and 1.32E+01 and 1.39E+01
Normalised by EXP2: START full length ([2]; BLOT Rh5, '-' lane): 8.04E+01 and 1.20E+02 and 3.28E+01 and 2.15E+02 and 2.08E+02
Normalised by EXP2: START processed 1 ([2]; BLOT Rh5, '-' lane): 5.15E+01 and 3.77E+01 and 7.46E+00 and 4.92E+01 and 7.28E+01
Normalised by EXP2: START processed 2 ([2]; BLOT Rh5, '-' lane): 6.74E+01 and 3.23E+01 and 1.26E+01 and 2.81E+01 and 6.72E+01
Normalised by EXP2 and full length: START processed 1 ([2]; BLOT Rh5, '-' lane): 6.41E+01 and 3.14E+01 and 2.27E+01 and 2.28E+01 and 3.49E+01
Normalised by EXP2 and full length: START processed 2 ([2]; BLOT Rh5, '-' lane): 8.38E+01 and 2.69E+01 and 3.85E+01 and 1.30E+01 and 3.22E+01
Raw densitometry: START full length ([2]; BLOT Rh5, '-' lane): 9.62 and 1.50E+01 and 4.00E+01 and 3.32E+01 and 1.67E+01
Raw densitometry: START processed 1 ([2]; BLOT Rh5, '-' lane): 3.02 and 3.41E+00 and 9.14E+00 and 1.16E+01 and 1.07E+01
Raw densitometry: START processed 2 ([2]; BLOT Rh5, '-' lane): 2.59 and 5.78E+00 and 5.21E+00 and 1.07E+01 and 1.40E+01
level of PfSTART1proc1 normalised to PEXEL-cleaved PfSTART1 [2, 3]: contained most of both processed bands
level of PfSTART1proc2 normalised to PEXEL-cleaved PfSTART1 [2, 3]: significant enrichment in PfSTART1proc2
